Measurements as given in patent US20250098679A1, “HERBICIDAL PYRIDONE DERIVATIVES” (SYNGENTA CROP PROTECTION AG, priority 2021, published 2025).

Columns and labels:
Type in all cases: in vivo
[1] = tested on: Amaranthus palmeri (AMAPA); experiment: Pre-emergence Test, Amaranthus palmeri (AMAPA); conditions: evaluated after 13 days
Setaria faberi (SETFA) = experiment: Post-emergence Test, Setaria faberi (SETFA); design: key to percentage damage caused to the plant, SETFA (five-point scale): 5=81-100%, 4=61-80%, 3=41-60%, 2=21-40%, 1=0-20% damage; conditions: evaluated after 13 days
Procedure, shortened: (§1)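 Spray application at 1000 g/ha unless otherwise stated. Damage was scored 13 days later as 1 (0-20%) to 5 (81-100%).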

[2] = tested on: Ipomoea hederacea (IPOHE); experiment: Post-emergence Test, Ipomoea hederacea (IPOHE); design: key to percentage damage caused to the plant, IPOHE (five-point scale): 5=81-100%, 4=61-80%, 3=41-60%, 2=21-40%, 1=0-20% damage; conditions: evaluated after 13 days
Procedure, shortened: as §1

[3] = tested on: Ipomoea hederacea (IPOHE); experiment: Pre-emergence Test, Ipomoea hederacea (IPOHE); conditions: evaluated after 13 days
Zea mays (ZEAMX) [4] = experiment: Pre-emergence Test, Zea mays (ZEAMX); conditions: evaluated after 13 days
[5] = tested on: Amaranthus palmeri (AMAPA); experiment: Post-emergence Test, Amaranthus palmeri (AMAPA); design: key: 5=81-100%, 4=61-80%, 3=41-60%, 2=21-40%, 1=0-20% damage; conditions: evaluated after 13 days
Procedure, shortened: as §1

[6] = tested on: Amaranthus retoflexus (AMARE); experiment: Post-emergence Test, Amaranthus retoflexus (AMARE); design: key to percentage damage caused to the plant, AMARE (five-point scale): 5=81-100%, 4=61-80%, 3=41-60%, 2=21-40%, 1=0-20% damage; conditions: evaluated after 13 days
Procedure, shortened: as §1

[7] = tested on: Echinochloa crus-galli (ECHCG); experiment: Post-emergence Test, Echinochloa crus-galli (ECHCG); design: key to percentage damage caused to the plant, ECHCG (five-point scale): 5=81-100%, 4=61-80%, 3=41-60%, 2=21-40%, 1=0-20% damage; conditions: evaluated after 13 days; for Post-emergence Test ECHCG, percentage damage caused to the plant (five-point scale): 250 g/Ha (*)
Procedure, shortened: as §1

[8] = tested on: Amaranthus retoflexus (AMARE); experiment: Pre-emergence Test, Amaranthus retoflexus (AMARE); conditions: evaluated after 13 days
[9] = tested on: Echinochloa crus-galli (ECHCG); experiment: Pre-emergence Test, Echinochloa crus-galli (ECHCG); conditions: evaluated after 13 days
Zea mays (ZEAMX) [10] = experiment: Post-emergence Test, Zea mays (ZEAMX); design: key to percentage damage caused to the plant, ZEAMX (five-point scale): 5=81-100%, 4=61-80%, 3=41-60%, 2=21-40%, 1=0-20% damage; conditions: evaluated after 13 days
Procedure, shortened: as §1

SMILES	Pre-emergence Test AMAPA, percentage damage caused to the plant (five-point scale) ([1]; 250 g/Ha (*))	Pre-emergence Test AMAPA, percentage damage caused to the plant (five-point scale) ([1]; 1000 g/ha)	percentage damage caused to the plant, SETFA (five-point scale) (Setaria faberi (SETFA); 1000 g/ha)	percentage damage caused to the plant, IPOHE (five-point scale) ([2]; 250 g/Ha)	percentage damage caused to the plant, IPOHE (five-point scale) ([2]; 1000 g/ha)	Pre-emergence Test IPOHE, percentage damage caused to the plant (five-point scale) ([3]; 250 g/Ha (*))	Pre-emergence Test IPOHE, percentage damage caused to the plant (five-point scale) ([3]; 1000 g/ha)	Pre-emergence Test ZEAMX, percentage damage caused to the plant (five-point scale) (Zea mays (ZEAMX) [4]; 250 g/Ha (*))	Pre-emergence Test ZEAMX, percentage damage caused to the plant (five-point scale) (Zea mays (ZEAMX) [4]; 1000 g/ha)	percentage damage caused to the plant, AMAPA (five-point scale) ([5]; 250 g/Ha)	percentage damage caused to the plant, AMAPA (five-point scale) ([5]; 1000 g/ha)	percentage damage caused to the plant, AMARE (five-point scale) ([6]; 250 g/Ha)	percentage damage caused to the plant, AMARE (five-point scale) ([6]; 1000 g/ha)	percentage damage caused to the plant, ECHCG (five-point scale) ([7]; 250 g/Ha)	Pre-emergence Test AMARE, percentage damage caused to the plant (five-point scale) ([8]; 250 g/Ha (*))	Pre-emergence Test AMARE, percentage damage caused to the plant (five-point scale) ([8]; 1000 g/ha)	Pre-emergence Test ECHCG, percentage damage caused to the plant (five-point scale) ([9]; 250 g/Ha (*))	Pre-emergence Test ECHCG, percentage damage caused to the plant (five-point scale) ([9]; 1000 g/ha)	percentage damage caused to the plant, ZEAMX (five-point scale) (Zea mays (ZEAMX) [10]; 1000 g/ha)	percentage damage caused to the plant, ECHCG (five-point scale) ([7]; 1000 g/ha)	further results
CCn1c(Cn2nccc2COC)cc(=O)c(C(=O)O)c1-c1ccc(Cl)c(Cl)c1 [Compound 190, 2-(3,4-dichlorophenyl)-1-ethyl-6-[[5-(methoxymethyl)pyrazol-1-yl]methyl]-4-oxo-pyridine-3-carboxylic acid]	0	1 (1=0-20%)	4 (4=61-80%)	1 (1=0-20%)	3 (3=41-60%)	1 (1=0-20%)	3 (3=41-60%)	1 (1=0-20%)	2 (2=21-40%)	1 (1=0-20%)	1 (1=0-20%)	1 (1=0-20%)	2 (2=21-40%)	3 (3=41-60%)	0	1 (1=0-20%)	1 (1=0-20%)	4 (4=61-80%)	3 (3=41-60%)		percentage damage caused to the plant, ZEAMX (five-point scale) (Zea mays (ZEAMX) [10]; 250 g/Ha): 0
CCn1c(Cn2ccc(-c3cccs3)n2)cc(=O)c(C(=O)O)c1-c1ccc(Cl)c(Cl)c1 [Compound 194, 2-(3,4-dichlorophenyl)-1-ethyl-4-oxo-6-[[3-(2-thienyl)pyrazol-1-yl]methyl]pyridine-3-carboxylic acid]	0	0				1 (1=0-20%)	2 (2=21-40%)	0	1 (1=0-20%)						0	0	1 (1=0-20%)	2 (2=21-40%)			Post-emergence Test SETFA, percentage damage caused to the plant (five-point scale) (Setaria faberi (SETFA); 1000 g/ha): 3 (3=41-60%); Post-emergence Test IPOHE, percentage damage caused to the plant (five-point scale) ([2]; 250 g/Ha (*)): 1 (1=0-20%); Post-emergence Test IPOHE, percentage damage caused to the plant (five-point scale) ([2]; 1000 g/ha): 2 (2=21-40%); Post-emergence Test AMAPA, percentage damage caused to the plant (five-point scale) ([5]; 250 g/Ha (*)): 0; Post-emergence Test AMAPA, percentage damage caused to the plant (five-point scale) ([5]; 1000 g/ha): 1 (1=0-20%); Post-emergence Test AMARE, percentage damage caused to the plant (five-point scale) ([6]; 250 g/Ha (*)): 0; Post-emergence Test AMARE, percentage damage caused to the plant (five-point scale) ([6]; 1000 g/ha): 2 (2=21-40%); Post-emergence Test ECHCG, percentage damage caused to the plant (five-point scale) [7]: 2 (2=21-40%); Post-emergence Test ZEAMX, percentage damage caused to the plant (five-point scale) (Zea mays (ZEAMX) [10]; 250 g/Ha (*)): 1 (1=0-20%); Post-emergence Test ZEAMX, percentage damage caused to the plant (five-point scale) (Zea mays (ZEAMX) [10]; 1000 g/ha): 1 (1=0-20%)
CCn1c(Cn2nc(-c3ccccc3)cc2C(F)(F)F)cc(=O)c(C(=O)O)c1-c1ccc(Cl)c(Cl)c1 [Compound 198, 2-(3,4-dichlorophenyl)-1-ethyl-4-oxo-6-[[3-phenyl-5-(trifluoromethyl)pyrazol-1-yl]methyl]pyridine-3-carboxylic acid]		1 (1=0-20%)					0		1 (1=0-20%)							1 (1=0-20%)		1 (1=0-20%)			Post-emergence Test SETFA, percentage damage caused to the plant (five-point scale) (Setaria faberi (SETFA); 1000 g/ha): 2 (2=21-40%); Post-emergence Test IPOHE, percentage damage caused to the plant (five-point scale) ([2]; 250 g/Ha (*)): 1 (1=0-20%); Post-emergence Test IPOHE, percentage damage caused to the plant (five-point scale) ([2]; 1000 g/ha): 2 (2=21-40%); Post-emergence Test AMAPA, percentage damage caused to the plant (five-point scale) ([5]; 250 g/Ha (*)): 1 (1=0-20%); Post-emergence Test AMAPA, percentage damage caused to the plant (five-point scale) ([5]; 1000 g/ha): 3 (3=41-60%); Post-emergence Test AMARE, percentage damage caused to the plant (five-point scale) ([6]; 250 g/Ha (*)): 1 (1=0-20%); Post-emergence Test AMARE, percentage damage caused to the plant (five-point scale) ([6]; 1000 g/ha): 4 (4=61-80%); Post-emergence Test ECHCG, percentage damage caused to the plant (five-point scale) [7]: 2 (2=21-40%); Post-emergence Test ZEAMX, percentage damage caused to the plant (five-point scale) (Zea mays (ZEAMX) [10]; 250 g/Ha (*)): 1 (1=0-20%); Post-emergence Test ZEAMX, percentage damage caused to the plant (five-point scale) (Zea mays (ZEAMX) [10]; 1000 g/ha): 2 (2=21-40%)
CCn1c(Cn2ncc(C(F)(F)F)n2)cc(=O)c(C(=O)O)c1-c1ccc(Cl)c(Cl)c1 [Compound 189, 2-(3,4-dichlorophenyl)-1-ethyl-4-oxo-6-[[4-(trifluoromethyl)triazol-2-yl]methyl]pyridine-3-carboxylic acid]	2 (2=21-40%)			4 (4=61-80%)		3 (3=41-60%)		4 (4=61-80%)		5 (5=81-100%)		4 (4=61-80%)		4 (4=61-80%)	2 (2=21-40%)		5 (5=81-100%)				percentage damage caused to the plant, ZEAMX (five-point scale) (Zea mays (ZEAMX) [10]; 250 g/Ha): 4 (4=61-80%)
CCOC(=O)c1c(-c2ccc(Cl)c(Cl)c2)n(CC)c(Cn2cnc([N+](=O)[O-])n2)cc1=O [Compound 43, ethyl 2-(3,4-dichlorophenyl)-1-ethyl-6-[(3-nitro-1,2,4-triazol-1-yl)methyl]-4-oxo-pyridine-3-carboxylate]			1 (1=0-20%)	0	0					1 (1=0-20%)	1 (1=0-20%)	1 (1=0-20%)	0	1 (1=0-20%)					1 (1=0-20%)	1 (1=0-20%)	percentage damage caused to the plant, SETFA (five-point scale) (Setaria faberi (SETFA); 250 g/Ha): 0; percentage damage caused to the plant, ZEAMX (five-point scale) (Zea mays (ZEAMX) [10]; 250 g/Ha): 0
CCn1c(Cn2ccnc2C2CC2)cc(=O)c(C(=O)O)c1-c1ccc(Cl)c(Cl)c1 [Compound 95, 6-[(2-cyclopropylimidazol-1-yl)methyl]-2-(3,4-dichlorophenyl)-1-ethyl-4-oxo-pyridine-3-carboxylic acid]			1 (1=0-20%)		1 (1=0-20%)						1 (1=0-20%)		0						1 (1=0-20%)	1 (1=0-20%)	
CCc1ncnn1Cc1cc(=O)c(C(=O)O)c(-c2ccc(Cl)c(Cl)c2)n1CC [Compound 70, 2-(3,4-dichlorophenyl)-1-ethyl-6-[(5-ethyl-1,2,4-triazol-1-yl)methyl]-4-oxo-pyridine-3-carboxylic acid]			2 (2=21-40%)		1 (1=0-20%)						1 (1=0-20%)		1 (1=0-20%)						0	1 (1=0-20%)	
CCOC(=O)c1c(-c2ccc(Cl)c(Cl)c2)n(CC)c(Cn2cncn2)cc1=O [Compound 60, ethyl 2-(3,4-dichlorophenyl)-1-ethyl-4-oxo-6-(1,2,4-triazol-1-ylmethyl)pyridine-3-carboxylate]			1 (1=0-20%)		1 (1=0-20%)						0		1 (1=0-20%)						0	2 (2=21-40%)	
CCn1c(Cn2cc(S(C)(=O)=O)cn2)cc(=O)c(C(=O)O)c1-c1ccc(Cl)c(Cl)c1 [Compound 90, 2-(3,4-dichlorophenyl)-1-ethyl-6-[(4-methylsulfonylpyrazol-1-yl)methyl]-4-oxo-pyridine-3-carboxylic acid]			0		0						1 (1=0-20%)		1 (1=0-20%)						0	1 (1=0-20%)	
